{
  "source": "patent US20130102662A1",
  "about": "“USE OF INDUCIBLE NITRIC OXIDE SYNTHASE INHIBITORS AND NITRIC OXIDE […] INHIBIT POST-[…] IMMUNODEPRESSION” (University of Pittsburgh - of the Commonwealth System of …, priority 2011, published 2013)",
  "key": {"splenocytes [1]": {"system": "splenocytes", "test": "Splenocyte IFNγ release 48 hours after pseudofracture trauma, mice given 1400 W", "assay_type": "in vivo", "details": "C57BL/6 mice, 1400 W 5 mg/kg intraperitoneally", "method": "Control mice received no experimental manipulation.\nMice were euthanized at 6 and 48 hours."}, "splenocytes [2]": {"system": "splenocytes", "test": "Splenocyte proliferation (3H-dT uptake) 48 hours after pseudofracture + laparotomy, NOX-100 by osmotic pump", "assay_type": "in vivo, C57BL/6 mice", "details": "PF+laparotomy, NOX-100 30 mg/kg/hr over 48 hours by intraperitoneal osmotic pump, Mean±SEM", "method": "The mice were divided into six groups (n=5-10):\n(§1) Mice then also received either NOX-100 at a dose of 30 mg/kg/hr or vehicle (Veh) over the 48 hour time period. A controlled, continuous drug delivery rate was established through the use of osmotic pumps inserted intraperitoneally by laparotomy. Laparotomy with pump insertion was performed at the time of trauma (0 hours). Please note that the laparotomy procedure itself is considered a significant trauma. Mice in the ‘Unmanipulated controls’ group received no experimental manipulation.\nMice were euthanized at a 48 hour time point. Measurements at this late time point included assessment of splenocyte responses. Splenocyte proliferation, a well established parameter of immune dysfunction was assessed. […] Splenocyte proliferation was assessed using tritiated thymidine (^3H-dT) uptake as counts per minute (c.p.m.)."}, "splenocytes [3]": {"system": "splenocytes", "test": "Splenocyte interferon-gamma release (ELISA) 48 hours after pseudofracture + laparotomy, NOX-100 by osmotic pump", "assay_type": "in vivo, C57BL/6 mice", "method": "as §1\nAdditional measurements of splenocyte responses at the late 48 hr time point included assessment of splenocyte interferon-gamma release, an established parameter of immune dysfunction. […] Splenocyte culture supernatants were collected and assessed by ELISA."}},
  "data": [
    {"smiles": "CC(=N)NCc1cccc(CN)c1", "note": "[1400 W, N-(3-(Aminomethyl)benzyl)acetamidine]", "values": [
      {"measurement": "Interferon-gamma release by splenocytes after antiCD3e stimulation following trauma", "setting": "splenocytes [1]; antiCD3e 1 μg/ml (FIG. 6)", "result": "no depression in cytokine release"},
      {"measurement": "Concanavalin A stimulated splenocyte cytokine release (IFNγ) following trauma", "setting": "splenocytes [1]; concanavalin A 2.5 μg/ml (FIG. 4)", "result": "not significantly reduced"}
    ]},
    {"smiles": "CN(C[C@H](O)[C@@H](O)[C@H](O)[C@H](O)CO)C(=S)[S][Na]", "note": "[NOX-100]", "values": [
      {"measurement": "Splenocyte proliferation, tritiated thymidine uptake after antiCD3e stimulation", "setting": "splenocytes [2]; antiCD3e 1 μg/ml, p<0.05 vs vehicle (FIG. 9B)", "result": "45208.9±4890.5", "unit": "c.p.m."},
      {"measurement": "Splenocyte proliferation, tritiated thymidine uptake after concanavalin A stimulation", "setting": "splenocytes [2]; concanavalin A 2.5 μg/ml, p=0.062 vs vehicle (FIG. 9A)", "result": "33658.6±3787.9", "unit": "c.p.m."},
      {"measurement": "Post-injury decrease in splenocyte release of interferon gamma, effect of administration", "setting": "splenocytes [3]; 48 hrs post injury, NOX-100 30 mg/kg/hr (FIGS. 10A-B)", "result": "reversed"},
      {"measurement": "Splenocyte interferon-gamma release after antiCD3e stimulation", "setting": "splenocytes [3]; PF+laparotomy, NOX-100 30 mg/kg/hr over 48 hours by intraperitoneal osmotic pump, antiCD3e 1 μg/ml, Mean±SEM, p<0.05 vs vehicle (FIG. 10B)", "result": "604.70 ± 86.96", "unit": "pg/mL"}
    ]}
  ]
}
